One molecule from patent US9844521B2, “Pharmaceutical composition comprising ginger extract or shogaol” (UNIVERSITY-INDUSTRY COOPERATION GROUP OF KYUNG HEE …, priority 2008, dated 2017) can be followed below.

The subject of one experiment is ICR mice. Kind of experiment: Passive avoidance task (cognitive ability enhancement). Type of experiment: in vivo, mouse. As to conditions: 5 mg/kg oral once per day for 3 days; control 165.50±23.39 seconds; p<0.05. The method, then: Male ICR mice having a weight of 25-28 g were obtained and nurtured in an animal laboratory at Kyunghee University Graduate School of East-West Medicine Science for 7 days for adaptation. Water and feed were freely supplied, and the temperature (22±2[…]), humidity (53±3%), and a cycle of brightness and darkness (12 hours) were automatically controlled. Shogaol used was obtained from WAKO Company (Japan).
Mice were divided into two groups, each of which consisted of 10 mice. A first group (control) was orally administered with 10% dimethyl sulfoxide in an amount of 5 ml per mouse weight kg for 3 days, and a second group was orally administered with 5 mg/kg of shogaol dissolved in 10% dimethyl sulfoxide for 3 days. […]
In a test device having an inner structure divided into two identical spaces with a door therebetween, on a first day, one space was bright and the other space was dark, and a test animal was allowed to stay in the bright space for 10 seconds and then the door was opened, and when the test animal moved toward the dark space, 0.25 mA of an electrical stimulation was applied to the feet of the test animal. After 24 hours, the same passive avoidance task was performed and a time during which the test animal stayed in the light space was measured. […]

Experiment [1] relates to rat primary mesencephalic dopaminergic cells. In words: Protection of dopamine cells against 6-OHDA neurotoxicity (TH immunohistochemistry). Type of experiment: cell-based. Conditions: 0.01 μM, 10 μM 6-OHDA for 18 hours; 6-OHDA group 34.00±5.77% of the control. The method, then:
Female Sprague-Dawley rats (2-week old) were used, and shogaol was obtained from WAKO Company (Japan).
Fetal mesencephalon tissues of Sprague-Dawley rats […] were desquamated, and mechanically dissociated by using a forcept. The tissues were treated with trypsin and the number of cells was counted, and the cells were seeded on a cover slip coated with poly-L-lysine (PLL), and then proliferated in an incubator including 5% CO2 and 95% air at a temperature of 37 °C for 5 days. A fetal bovine serum (FBS)-free media was treated with 0.01 μM or 0.1 μM of shogaol after the shogaol was diluted, or the ginger extract (the ethanol extract, the hexane fraction, the ethyl acetate fraction, the butanolfraction, and the water fraction prepared according to Example 1) after the ginger extract was diluted. […]
Cells immobilized by using 4% PFA were washed with PBS and then, dehydrated with 1% hydrogen peroxide for 15 minutes. […] After the color-producing using DAB, a cover slip was separated and then mounted on a slide by using a gel mount and the number of cells was counted.
Cells were color-produced by immunohistochemistry in the same manner as Experimental Example 3-1, and the number of cells was counted and the results are shown in FIGS. 8 and 9.

Experiment [2] has as its system C57BL/6 mouse having MPTP-induced Parkinson's disease. Kind of experiment: Pole test in MPTP-induced Parkinson's disease model. As to conditions: 10 mg/kg oral once per day for 5 days, MPTP 30 mg/kg i.p. Type of experiment: in vivo. As to the method:
7-week old C57BL/6 based male mice (19-22 g) were obtained and nurtured in an animal laboratory at Kyunghee University Graduate School of East-West Medicine
Science for one week or more for adaptation. Water and feed were freely supplied, and the temperature (22±2[…]), humidity (53±3%), and a cycle of brightness and darkness (12 hours) were automatically controlled. Shogaol used was obtained from WAKO Company (Japan).
Mice were divided into three groups, each of which consisted of 6 mice. A first group (control) and a second group (MPTP group) were orally administered once per day with 10% dimethyl sulfoxide in an amount of 5 ml per mouse weight kg for 5 days, and a third group (shogaol-administered group) was orally administered once per day with 10 mg/kg of shogaol dissolved in 10% dimethyl sulfoxide for 5 days. […]
On a day after the last day of the 5-day administration period, a pole test was performed using a pole having a height of 50 cm and a diameter of 1 cm. A C57bl/6 mouse was placed on the pole with its head upward, and a time during which the mouse turns a summit of the pole at an angle of 180° and moves downward until its four feet touch the ground was measured. […]

The structures appear in SMILES notation.

Take `CCCCC/C=C/C(=O)CCc1ccc(O)c(OC)c1` [shogaol, (E)-1-(4-hydroxy-3-methoxyphenyl)dec-4-en-3-one]: the latency time with ICR mice was found to be 240.63 ± 24.14 s. In experiment [1], the “number of dopamine positive cells” value stood at 57.25±5.65%. The molecule further yielded a T-la (% of control), pole test in experiment [2] of 99.1 ± 8.11%.
